Patent US10322995B2, “Substituted cyano cycloalkyl penta-2,4-dienes, cyano cycloalkyl pent-2-en-4-ynes, cyano heterocyclyl penta-2,4-dienes and cyano heterocyclyl pent-2-en-4-ynes as active substances against abiotic plant stress” (BAYER CROPSCIENCE AKTIENGESELLSCHAFT, priority 2014, dated 2019)

tested on: Brassica napus (BRSNS); assay: In vivo analyses Part B: drought stress, appearance vs stressed control plants in categories (BRSNS); design: key: 0: no positive effect; 10: slight positive effect; 20: clear positive effect; 30: strong positive effect; conditions: spray application 250 g/ha, category vs stressed control plants, 2-3 pots
Experimental: Seeds of monocotyledonous and dicotyledonous crop plants were sown in sandy loam in plastic pots, covered with soil or sand and cultivated in a greenhouse under good growth conditions. The test plants were treated at the early leaf stage (BBCH10-BBCH13). To assure uniform water supply before commencement of stress, the potted plants were supplied with water by dam irrigation prior to substance application. The inventive compounds, formulated in the form of wettable powders (WP), were sprayed onto the green parts of the plants as an aqueous suspension at an equivalent water application rate of 600 I/ha with addition of 0.2% wetting agent (e.g. agrotin). Substance application was followed immediately by stress treatment of the plants. Drought stress was induced by gradual drying out under the following conditions: “Day”: 14 hours with illumination at 26-30° C. “Night”: 10 hours without illumination at 18-20° C. The duration of the respective stress phases was guided mainly by the condition of the stressed control plants. It was ended (by re-irrigating and transfer to a greenhouse with good growth conditions) as soon as irreversible damage was observed on the stressed control plants. The end of the stress phase was followed by an about 4-7-day recovery phase, during which the plants were once again kept under good growth conditions in a greenhouse. The duration of the recovery phase was guided mainly by when the trial plants had attained a state which enabled visual scoring of potential effects, and was therefore variable. Once this juncture had been reached, the appearance of the plants treated with test substances was recorded in comparison to the stressed control plants by the following categories: [table] In order to rule out any influence on the effects observed by any fungicidal or insecticidal action of the test compounds, it was additionally ensured that the tests proceeded without fungal infection or insect infestation. For each substance and dosage, 2-3 pots were treated and evaluated. BRSNS=Brassica napus

Compound | Effect (BRSNS)
CC/C(C#CC(O)(C(C)C)C1(C#N)CC1)=C/C(=O)OC (centres unmarked) [I.1-102] | 30
CC/C(C#CC(O)(c1ccc(F)cc1)C1(C#N)CC1)=C/C(=O)OCCOC (centres unmarked) [I.1-614] | 10-20
CC/C(C#CC(O)(c1ccc(F)cc1)C1(C#N)CC1)=C/C(=O)OC (centres unmarked) [I.1-502] | 20-30

molecular target: T1, phosphatase ABI1 via the co-regulator RCAR11/PYR1 (Arabidopsis thaliana, UniProt O49686+P49597); assay: In vitro assay: inhibition of the phosphatase ABI1 via the co-regulator RCAR11/PYR1, MUP dephosphorylation, fluorescence; type: biochemical; design: inhibition: dose or concentration left out as unconfirmed; conditions: MUP dephosphorylation, fluorescence 460 nm; read-out: ABI1 inhibition
T1 sequence (O49686 1-191): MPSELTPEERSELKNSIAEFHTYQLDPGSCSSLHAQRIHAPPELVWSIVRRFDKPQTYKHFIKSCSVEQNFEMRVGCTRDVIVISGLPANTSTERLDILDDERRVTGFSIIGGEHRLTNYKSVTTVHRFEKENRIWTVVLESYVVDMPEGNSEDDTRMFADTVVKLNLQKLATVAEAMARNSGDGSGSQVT
T1 sequence (P49597 1-434): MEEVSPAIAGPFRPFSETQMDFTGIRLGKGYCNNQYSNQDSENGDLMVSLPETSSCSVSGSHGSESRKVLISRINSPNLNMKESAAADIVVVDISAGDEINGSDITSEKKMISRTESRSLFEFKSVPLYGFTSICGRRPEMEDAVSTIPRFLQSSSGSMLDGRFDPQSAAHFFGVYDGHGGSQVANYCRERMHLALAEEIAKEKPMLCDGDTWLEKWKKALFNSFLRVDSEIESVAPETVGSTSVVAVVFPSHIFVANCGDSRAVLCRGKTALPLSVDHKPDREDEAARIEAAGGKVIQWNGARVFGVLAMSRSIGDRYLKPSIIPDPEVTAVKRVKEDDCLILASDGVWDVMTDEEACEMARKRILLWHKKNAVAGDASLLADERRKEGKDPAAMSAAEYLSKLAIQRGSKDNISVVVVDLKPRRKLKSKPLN
Source text: Effects of the phytohormone abscisic acid (ABA) on the behaviour of plants under abiotic stress and the mechanism of action of ABA are described in the literature (cf. Abrams et al, WO97/23441, Cutler, Park et al. Science, 2009, 324, 1068; Grill et al. Science, 2009, 324, 1064; Tanokura et al. Biophysics, 2011, 7, 123; Schroeder et al. Plant J. 2010, 61, 290). Therefore, it is possible with the aid of a suitable in vitro test system to derive a correlation between the action of ABA and the stress response of a plant under abiotic stress. Under drought stress, plants form the phytohormone abscisic acid (ABA). This binds, along with a co-regulator (Regulatory Component of ABA-Receptor=RCAR according to Grill et al. Science, 2009, 324, 1064 or PYR/PYL according to Cutler et al. Science, 2009, 324, 1068), to a phosphatase (e.g. ABI1, a type 2C protein phosphatase, also abbreviated to PP2C) and inhibits its activity. As a result, a “downstream” kinase (e.g. SnRK2) is no longer dephosphorylated. This kinase, which is thus active, via phosphorylation of transcription factors (e.g. AREB/ABF, vgl. Yoshida et al., Plant J. 2010, 61, 672), switches on a genetic protection programme to increase drought stress tolerance.
The assay described hereinafter utilizes the inhibition of the phosphatase ABI1 via the co-regulator RCAR11/PYR1 aus Arabidopsis thaliana.
For the determination of activity, the dephosphorylation of 4-methylumbelliferyl phosphate (MUP) was measured at 460 nm. The in vitro assay was conducted in Greiner 384-well PS microplates F-well, using two controls: a) dimethyl sulphoxide (DMSO) 0.5% (f.c.) and b) 5 μM (f.c.) abscisic acid (ABA). […] The substance solution thus obtained, if necessary, was stirred with esterase from porcine liver (EC 3.1.1.1) at room temperature for 3 h and centrifuged at 4000 rpm for 30 min. A total volume of 45 μl was introduced into each cavity of the microplate, having the following composition: • 1) 5 μl of substance solution, i.e. a) DMSO 5% or b) abscisic acid solution or c) the corresponding example compound of the general formula (I) dissolved in 5% DMSO. • 2) 20 μl of enzyme buffer mix, composed of a) 40% by vol. of enzyme buffer (10 ml contain equal proportions by volume of 500 mM Tris-HCl pH8, 500 mM NaCl, 3.33 mM MnCl2, 40 mM dithiothreitol (DTT)), b) 4% by vol. of ABI1 dilution (protein stock solution was diluted so as to give, after addition, a final concentration in the assay of 0.15 μg ABI1/well), c) 4% by vol. of RCAR11 dilution (enzyme stock was diluted so as to give, on addition of the dilution to the enzyme buffer mix, a final concentration in the assay of 0.30 μg enzyme/well), d) 5% by vol. of Tween20 (1%), e) 47% by vol. H2O bi-dist. • 3) 20 μl of substrate mix, composed of a) 10% by vol. of 500 mM Tris-HCl pH8, b) 10% by vol. of 500 mM NaCl, c) 10% by vol. of 3.33 mM MnCl2, d) 5% by vol. of 25 mM MUP, 5% by vol. of Tween20 (1%), 60% by vol. of H2O bi-dist.
Enzyme buffer mix and substrate mix were made up 5 minutes prior to the addition and warmed to a temperature of 35° C. On completion of pipetting of all the solutions and on completion of mixing, the plate was incubated at 35° C. for 20 minutes. Finally, a relative fluorescence measurement was made at 35° C. with a BMG Labtech “POLARstar Optima” microplate reader using a 340/10 nm excitation filter and a 460 nm emission filter. The efficacy of the compounds of the general formula (I) is reported in the table which follows using abscisic acid (No. 64) as comparative substance according to the following classification: ++++ (inhibition≥90%), +++ (90%>inhibition≥70%), ++ (70%>inhibition≥50%), +(50%>inhibition≥30%).
Effects of selected compounds of the general formula (I) in the above-described in vitro assay at a concentration of 5 mM of the substance of the general formula (I) in question in a solution of DMSO and water: […]

inhibition [%] | Compound
> 90 | CCC(=C/C(=O)OC)/C=C/C(O)(C1CCCCC1)C1(C#N)CC1 (centres unmarked) [I.2-579, Methyl (2Z,4E)-6-(1-cyanocyclopropyl)-6-cyclohexyl-3-ethyl-6-hydroxyhexa-2,4-dienoate]
> 90 | CCOC(=O)/C=C(/C)C#CC(O)(c1ccccc1)C1(C#N)CC1 (centres unmarked) [I.1.236]
> 90 | CCC(CC)C(O)(/C=C/C(=C\C(=O)OC)C(F)(F)F)C1(C#N)CC1 (centres unmarked) [I.2-585, Methyl (2E,4E)-6-(1-cyanocyclopropyl)-7-ethyl-6-hydroxy-3-(trifluoromethyl)nona-2,4-dienoate]

same assay, conditions: concentration of 5 mM of the substance in a solution of DMSO and water; MUP dephosphorylation, fluorescence 460 nm

Compound | ABI1 inhibition
CCOC(=O)C=C(C)C#CC(O)(c1cccc(F)c1)C1(C#N)CC1 (racemic) [I.1-792] | +++ (90%>inhibition≥70%)
CCOC(=O)/C=C(\C#CC(O)(c1ccccc1)C1(C#N)CC1)CC (centres unmarked) [I.1-203] | ++++ (inhibition≥90%)
CC/C(C#CC(O)(c1ccc(F)cc1)C1(C#N)CC1)=C/C(=O)NC(C)C (centres unmarked) [I.1-558] | ++ (70%>inhibition≥50%)
CCOC(=O)/C=C(/C)C#CC(C)(O)C1(C#N)CC1 (centres unmarked) [I.1-36] | +++ (90%>inhibition≥70%)
CC(C=CC(O)(C(C)C)C1(C#N)CC1)=CC(=O)O (racemic) [I.2-134] | ++++ (inhibition≥90%)
CC/C(C#CC(O)(c1ccc(F)cc1)C1(C#N)CC1)=C/C(=O)OCCOC (centres unmarked) [I.1-614] | ++++ (inhibition≥90%)
CCC(C#CC(O)(c1ccc(C)cc1)C1(C#N)CC1)=CC(=O)OC (racemic) [I.1-798] | ++++ (inhibition≥90%)
CC/C(C#CC(O)(c1ccc(F)cc1)C1(C#N)CC1)=C/C(=O)OC (centres unmarked) [I.1-502] | ++++ (inhibition≥90%)
CC/C(C#CC(O)(c1ccccc1)C1(C#N)CC1)=C/C(=O)OCCOC (centres unmarked) [I.1-610] | ++++ (inhibition≥90%)
CC/C(C#CC(O)(c1ccc(F)cc1)C1(C#N)CC1)=C/C(=O)NC1CC1 (centres unmarked) [I.1-557] | ++ (70%>inhibition≥50%)
CCC(C#CC(O)(c1ccc(C)cc1)C1(C#N)CC1)=CC(=O)OCCOC (racemic) [I.1-801] | ++++ (inhibition≥90%)
CCC(C#CC(O)(c1cccc(F)c1)C1(C#N)CC1)=CC(=O)OC (racemic) [I.1-768] | ++++ (inhibition≥90%)
CCCOC(=O)/C=C(\C#CC(O)(c1ccc(F)cc1)C1(C#N)CC1)CC (centres unmarked) [I.1-613] | ++++ (inhibition≥90%)
CCOC(=O)C=C(C=CC(O)(C(C)C)C1(C#N)CC1)C1CCCC1 (racemic) [I.2-130] | +++ (90%>inhibition≥70%)
CCCC(C#CC(O)(c1cccc(F)c1)C1(C#N)CC1)=CC(=O)O (racemic) [I.1-773] | +++ (90%>inhibition≥70%)
CCOC(=O)C=C(C)C#CC(O)(c1ccc(C)cc1)C1(C#N)CC1 (racemic) [I.1-822] | +++ (90%>inhibition≥70%)

More lines, now with the values ahead:

ABI1 inhibition | Compound
++++ (inhibition≥90%) | COC(=O)/C=C(\C#CC(O)(c1ccc(F)cc1)C1(C#N)CC1)C(F)(F)F (centres unmarked) [I.1-520]
+++ (90%>inhibition≥70%) | COC(=O)/C=C(\C#CC(O)(C1CCCCC1)C1(C#N)CC1)C(F)(F)F (centres unmarked) [I.1-692]
++++ (inhibition≥90%) | COC(=O)C=C(C=CC(O)(C1CCCCC1)C1(C#N)CC1)C(F)(F)F (racemic) [I.2-581]
++++ (inhibition≥90%) | CC/C(C#CC(O)(C(C)C)C1(C#N)CC1)=C/C(=O)OC (centres unmarked) [I.1-102]
+++ (90%>inhibition≥70%) | CCOC(=O)C=C(C#CC(O)(c1ccc(C)cc1)C1(C#N)CC1)C(F)(F)F (racemic) [I.1-813]
+++ (90%>inhibition≥70%) | COC(=O)C=C(C#CC(O)(c1cccc(F)c1)C1(C#N)CC1)C(F)(F)F (racemic) [I.1-782]
++++ (inhibition≥90%) | COC(=O)/C=C(\C#CC(O)(C1CC1)C1(C#N)CC1)C(F)(F)F (centres unmarked) [I.1-632]
++++ (inhibition≥90%) | COC(=O)/C=C(\C#CC(O)(c1ccccc1)C1(C#N)CC1)C(F)(F)F (centres unmarked) [I.1-220]
+++ (90%>inhibition≥70%) | CCOC(=O)C=C(C#CC(O)(c1cccc(F)c1)C1(C#N)CC1)C(F)(F)F (racemic) [I.1-783]
+++ (90%>inhibition≥70%) | CCOC(=O)C=C(C#CC(O)(C(CC)CC)C1(C#N)CC1)C(F)(F)F (racemic) [I.1-723]
++++ (inhibition≥90%) | CCCOC(=O)C=C(C=CC(O)(C1CCCCC1)C1(C#N)CC1)C(F)(F)F (racemic) [I.2-582]
+++ (90%>inhibition≥70%) | CCCOC(=O)C=C(C#CC(O)(c1ccc(C)cc1)C1(C#N)CC1)C(F)(F)F (racemic) [I.1-888]

same assay, conditions: read-out: ABI1 inhibition

Compound | inhibition [%]
CC1=CC(=O)CC(C)(C)[C@@]1(O)/C=C/C(C)=C\C(=O)O [abscisic acid, reference compound] | > 90
